{"source": "patent US20100048630A1", "about": "“METHODS FOR TREATING CNS DISORDERS” (priority 2008, published 2010)", "key": {"Male NMRI mice [1]": {"tested_on": "Male NMRI mice", "test": "Spontaneous locomotor activity (four-channel activity monitor)", "assay_type": "in vivo", "settings": "doses of 5 and 10 mg/kg", "description": "(§1) Male NMRI mice weighing 24-26 g were used. The animals were kept in polycarbonate cages in a thermostatically controlled room at 24±2° C. and at a relative humidity (RH) of 50±10%. The room was artificially illuminated from 6 am to 6 pm and the mice were given commercial pellet rat-mouse feed, autoclaved at 105° C. and sterile filtered tap water, ad libitum.\n(§2) An aqueous solution of radiprodil, in the form of a complex with heptakis(2,6-di-O-methyl)-β-cyclodextrin (DIMEB), was administered orally at doses of 2.5, 5 and 10 mg/kg (calculated for non-complexed radiprodil). […]\nSpontaneous locomotor activity was measured in a four-channel activity monitor manufactured by Farmakotechnika (Hungary). […] The photocell beam, when broken, signaled a count, which was then recorded by a computer.\nEach group consisted of 10 animals. […] The horizontal and vertical movements were determined as the number of beam interruptions collected in 15 minute intervals throughout the 1 hour period.\nIn the spontaneous locomotor activity test, the mean (±s.e.m) value of one hour horizontal activity data (in counts) of each group was calculated.\n(§3) The significance of the drug effect was determined by ANOVA followed by post-hoc Duncan-test. The percentage change in the horizontal activity, immobility or “FST-activity” variables were calculated for each dose according to the equation; […]"}, "Male NMRI mice [2]": {"tested_on": "Male NMRI mice", "test": "Forced swimming test (FST)", "assay_type": "in vivo", "settings": "doses of 5 and 10 mg/kg; may be a false positive from nonspecific stimulatory effect", "description": "as §1, §2\nThe forced swimming test (FST) was measured in glass cylinders (height: […], diameter 14 cm) containing 12 cm of water, maintained at 23-25° C. […] The duration of immobility was recorded using a stopwatch. […]\nIn the forced swimming test, the mean±standard error on the mean (s.e.m) immobility time in seconds was measured. […] The mean (±s.e.m) “FST-activity” value was also calculated for each group and submitted to the same data analysis process as the immobility data.\nas §3"}}}
{"smiles": "O=C(Nc1ccc2[nH]c(=O)oc2c1)C(=O)N1CCC(Cc2ccc(F)cc2)CC1", "note": "[radiprodil, 2-[4-(4-fluoro-benzyl)-piperidine-1-yl]-2-oxo-N-(2-oxo-2,3-dihydro-benzoxazol-6-yl)acetamide]", "values": [{"measurement": "effect on spontaneous motor activity of the mice", "setting": "Male NMRI mice [1]", "value": "stimulated"}, {"measurement": "effect in the forced swimming test", "setting": "Male NMRI mice [2]", "value": "significant effects"}]}
